These are literature values, as cited in patent publication US12156898B2, “Formulations of terlipressin” (BIOVIE Inc., priority 2019, dated 2024).

In data set [1] the test system is patients. The following applies: human, in vivo.
The conditions of data set [2]: in vivo.

Bridge positions count the residues as written; N and C are the ends. Peptide text beside a SMILES is read from it.

With `NCCCC[C@H](NC(=O)[C@@H]1CCCN1C(=O)[C@@H]1CSSC[C@H](NC(=O)CNC(=O)CNC(=O)CN)C(=O)N[C@@H](Cc2ccc(O)cc2)C(=O)N[C@@H](Cc2ccccc2)C(=O)N[C@@H](CCC(N)=O)C(=O)N[C@@H](CC(N)=O)C(=O)N1)C(=O)NCC(N)=O` [terlipressin] (H-GGGCYFQNCPKG-NH2; disulfide 4-9), in data set [1], the “severe side effects requiring discontinuation of treatment, share of patients” value was “up to 10%” and the “side effects, share of patients” value is given as “up to 40%”. The half-life result in data set [2] is on record as “short half-life”.
